Entries after “also recorded” stand apart in the source; their conditions may differ.
Legend:
[1] = system: dollar spot, Sclerotinia homeocarpa; assay: Field study of disease control on creeping bentgrass plots (percent inhibition, Colby synergy); format: in vivo; details: four applications at 14 day intervals, rated 15 days after final application, chlorothalonil 3.1, iprodione 1.03, thiophanate methyl 1.03, tebuconazole 0.31 LBai/A where included
Excerpt: In the context of the present subject matter, the term “synergy” is as defined by S. R. Colby in an article entitled “Calculation of the synergistic and antagonistic responses of herbicide combinations” published in the journal Weeds, 1967, 15, p. 20-22, incorporated herein by reference in its entirety. The action expected for a given combination of four active components can be calculated as follows:
[formula] in which E represents the expected percentage of fungicidal control (percent inhibition) for the multiple mixture of fungicides at defined doses (for example equal to x, y, z and w, respectively). X is the percentage of fungicide control observed by chlorothalonil at a defined dose (equal to x). Y is the percentage of fungicide control observed by iprodione at a defined dose (equal to y). Z is the percentage of fungicide control observed by thiophanate methyl at a defined dose (equal to z). W is the percentage of fungicide control observed by tebuconazole at a defined dose (equal to w). Here, efficacy or percent inhibition is determined in %. 0% means efficacy that corresponds to the Control, i.e., as if no treatment had been applied. Whereas, a percent inhibition of 100% means that no infection is observed. When the percent inhibition observed for the combination is greater than E, there is a synergistic effect. When the percent inhibition observed for the combination is equal to E, there is an additive effect and wherein the percent inhibition observed for the combination is lower than E, there is an antagonistic effect.
In the Colby model, one can transform its use of “percent inhibition” (or control) to “percent-of-untreated Control” to solve for E1 rather than E and simplify the equation:
[formula] where E1=100−E (conversely, solving for E, 100−E1=E), X1=100−X, Y1=100−Y, Z1=100−Z, and W1=100−W. Although many combinations of fungicides have been studied and evaluated by means of the Colby Index, it is quite clear by modeling such synthetic expressions of synergy that the addition of a third, or even fourth, active ingredient to the premix may encounter the Point of Diminishing Returns caused by correction factors for 3- and 4-way interactions that offset the increase in E (or decrease in E1). In marked contrast, the present subject matter has shown an expansive effect and performance boost so great that differences between the observed and expected values computed according to Colby can best be used as a descriptive statistic confirming the quarternary fungicidal mixture's obvious effect.
(§1) A field study was conducted to identify which combinations would maintain or improve Turf Quality (TQ) and prevent or cure crown, basal or foliar pathogens such as dollar spot. Each solo treatment, 2-way (Pair), 3-way (Triad), and the present quaternary fungicidal mixture was applied bi-weekly beginning Jul. 1, 2013 prior to any evidence of decline in TQ or appearance of disease. Experimental plots were laid out in a Randomized Complete Block design.
(§2) The dosage of each fungicidal active substance was held constant regardless of whether it appeared alone or in combination with other fungicides in order to quantify synergy according to the Colby formula. The quaternary mixture of the present subject matter was applied at the lowest rate specified herein, about 5.5 lb active substance per acre. Applications were made to replicate plots of creeping bentgrass (Agrostis stolonifera), each measuring 3 ft×5 ft. The turf was mowed as needed to maintain standard fairway height (blade length less than 0.5″). Four applications were made at 14 day re-treatment intervals, which is a conventional treatment schedule at the time of year when outbreaks of turfgrass disease occur reliably in the mid-Atlantic region (Greenville, Del.).
The mix rate and volume of dilute spray applied to each plot was held constant. […]

[2] = system: creeping bentgrass (Agrostis stolonifera); assay: Field study, Turf Quality (TQ) rating of treated plots; format: in vivo; details: ordinal scale 1-9 (8 and higher ideal, under 6 unacceptable), same plots, rates and timing, 15 days after final application
Protocol: as §1, §2
The mix rate and volume of dilute spray applied to each plot was held constant. A CO2 backpack sprayer outfitted with TeeJet AI9504E flat fan nozzle delivered a water dilution of each treatment at the use rate of 43.5 gallons per acre (407 liters Ha^−1) and 35 psi (0.375 gallons per minute).
Plots were evaluated and disease or cause of lesion identified 15 days after the final scheduled application, which was made on 12 August. At that time researchers rated each plot's TQ, the incidence of disease and its severity. Percent disease ratings were calculated on the basis of the percent of area of each plot showing symptoms of a disease, primarily dollar spot. Turf quality and color ratings are typically used as an indicator of the health of the turfgrass. Turf quality is scored on an ordinal scale from 1-9, where plots rated 8 and higher are considered ideal for color, uniformity and density, around 6.5 and above is considered acceptable, and ratings under 6 unacceptable for turfgrass disease and/or turf quality.
Disease pressure evidenced by the untreated control ratings was considered severe. Six untreated control plots averaged 40% incidence, primarily due to a continuous increase in dollar spot pressure over time. By the end of the trial, TQ of the untreated plots declined to a low level, where leaf die-back, bleaching and lesions rated an average TQ of 4.2. Turf quality of plots treated with each active substance alone at these dosages was poor, averaging 3.9.

COC(=O)NC(=S)Nc1ccccc1NC(=S)NC(=O)OC [Thio methyl, Thiophanate methyl]
Percent Inhibition [1]: 0% | Percent Inhibition ([1]; listed as thiophanate methyl): no better than the untreated control | Turf Quality [2]: 3.3 | Turf Quality ([2]; listed as thiophanate methyl): no better than the untreated control; also recorded: significantly lower ratings than those of the untreated Control

CC(C)NC(=O)N1CC(=O)N(c2cc(Cl)cc(Cl)c2)C1=O [Iprodione]
Percent Inhibition [1]: 5.8% | Percent Inhibition ([1]; listed as iprodione): no better than the untreated control | Turf Quality [2]: 4.0 | Turf Quality ([2]; listed as iprodione): no better than the untreated control

N#Cc1c(Cl)c(Cl)c(Cl)c(C#N)c1Cl [Chlorothalonil]
Percent Inhibition [1]: 15.8% | Turf Quality [2]: 4.3

CC(C)(C)C(O)(CCc1ccc(Cl)cc1)Cn1cncn1 (stereo not drawn) [Tebuconazole]
Percent Inhibition [1]: 19.3% | Turf Quality [2]: 4.0

Source: US10729137B2, “Quaternary fungicidal mixture” (priority 2013, dated 2020)
